{"source": "patent US20200214324A1", "about": "“Masking Bitter Flavors” (Board of Supervisors of Louisiana State University and …, priority 2009, published 2020)", "key": {"[1]": {"experiment": "tasting of aqueous potassium chloride solutions with or without mogroside", "assay_type": "in vivo", "source_text": "When tasted by volunteers, the solution without mogroside was bitter, unpleasant, and generally considered undrinkable.\n(§1) Additional examples of the use of Mogroside V to alter the flavors of various consumables, and the experimental results obtained, are summarized in Table I: […]"}, "[2]": {"experiment": "tasting of acai products with mogroside", "assay_type": "in vivo", "source_text": "Acai berries have a bitter off-flavor, which has limited the use of acai as a natural anti-oxidant. Prior methods for minimizing the bitterness of acai have included diluting the juice, adding sugar, or mixing acai with other, sweeter berries. […] The flat, tannic notes of acai were masked, and the puree flavor changed to a semi-sweet berry flavor with large, juicy top notes. The preferred concentration range was ˜200 to ˜500 ppm mogroside. […] Possible uses include any products that contain acai berry ingredients, including for example raw berries, purees, powders, flavorings, juices, ice cream (with or without glycerin), fruit fillings, smoothies, yogurts, teas, coffee, beer, salad dressing, marinades, candies, wines, liquors, other alcoholic beverages, and the like.\nas §1"}, "[3]": {"experiment": "vegetable oil with mogroside sprayed onto vegetables, tasting", "assay_type": "in vivo", "settings": "vegetable oil with 800 ppm mogroside sprayed on", "source_text": "Mogroside may also be applied to vegetables, for example as a spray or as a dipping solution. The bitter and astringent flavor notes of many vegetables are thereby reduced substantially, resulting in a smoother-tasting vegetable. Mogroside can also reduce beany notes and off-flavors in vegetables. We dispersed an aqueous or ethanol solution of mogroside into vegetable oil at a concentration of 800 ppm. The vegetable oil was then sprayed onto vegetables, either before or after cooking. […] The mogroside may be applied to vegetables from aerosols or misting solutions. It may also be used in microwaving, steaming, or boiling of vegetables, as well as other methods of cooking. […] Treating vegetables with mogroside can help to improve their acceptability."}, "[4]": {"experiment": "tasting of Hominex amino acid beverage with mogroside", "assay_type": "in vivo", "settings": "for off-flavors, chalkiness, pastiness and bitterness compared to the unmodified beverage / mogroside-associated off flavor: Hominex suspension", "method": "For example, we added mogroside to a commercial amino acid beverage (Hominex™) at a rate of 200-1000 ppm, preferably 300-800 ppm. The Hominex™ suspension, which contains free amino acids, vitamins, minerals, and other nutrients, was prepared in accordance with the manufacturer's directions. Mogroside was then added to the dissolved medical food drink. The suspension was allowed to equilibrate for about one minute before tasting. Compared to the unmodified beverage, there was a marked reduction in the off-flavors, the chalkiness, the pastiness, and the bitterness. […] Unless additional flavors are also added, mogroside's own off-flavor can limit its use at higher concentrations. Conversely, at least for the samples we have tested to date, there may be no compelling reason to use mogroside at such higher levels anyway. Using mogroside in free amino acid-based foods can reduce or eliminate the bitter and unpleasant flavors, making them much more palatable, and enhancing patient compliance. Similar results are expected for improving the palatability of other medical foods.\nas §1"}, "[5]": {"experiment": "tasting of coconut water with mogroside", "assay_type": "in vivo", "settings": "plain + 200 ppm mogroside (plain: bitter)", "source_text": "as §1"}, "[6]": {"experiment": "tasting of cocoa powder with mogroside", "assay_type": "in vivo", "settings": "plain + 200 ppm mogroside (plain: bitter)", "source_text": "as §1"}, "[7]": {"experiment": "tasting of pomegranate juice with mogroside", "assay_type": "in vivo", "settings": "plain + 200 ppm mogroside (plain: tannic)", "source_text": "as §1"}, "[8]": {"experiment": "tasting of lima beans with mogroside in oil", "assay_type": "in vivo", "settings": "plain + 100 ppm mogroside in oil (plain: beany)", "source_text": "as §1"}, "[9]": {"experiment": "tasting of turnip greens with mogroside in oil", "assay_type": "in vivo", "settings": "plain + 100 ppm mogroside in oil (plain: bitter)", "source_text": "as §1"}, "[10]": {"experiment": "tasting of Powerade sports drink with KCl and mogroside", "assay_type": "in vivo", "source_text": "as §1"}, "[11]": {"experiment": "tasting of vodka with mogroside", "assay_type": "in vivo", "settings": "plain + 200 ppm mogroside (plain: sharp bite)", "source_text": "as §1"}, "[12]": {"experiment": "tasting of rum with mogroside", "assay_type": "in vivo", "settings": "plain + 200 ppm mogroside (plain: sharp and bitter)", "source_text": "as §1"}, "[13]": {"experiment": "tasting of Robusta coffee with chicory with mogroside", "assay_type": "in vivo", "settings": "2 g/250 g water, plain + 200 ppm mogroside", "source_text": "as §1"}, "[14]": {"experiment": "difference and preference testing of a cocoa powder drink with 400 ppm mogroside", "assay_type": "in vivo", "source_text": "as §1"}, "[15]": {"experiment": "tasting of Ruby Red grapefruit with mogroside", "assay_type": "in vivo", "source_text": "as §1"}, "[16]": {"experiment": "solubility of mogroside in water versus oil", "assay_type": "physicochemical", "source_text": "Addition of mogroside will also help improve the flavor of other organ meats and products containing organ meats. Other methods of cooking may also be used. The concentration or amount of mogroside may vary, depending on the method of cooking used. […] By contrast, cooking foods in water may require that higher concentrations of mogroside be used than when cooking in oil, because the mogroside is soluble in the cooking liquid. Higher concentrations of mogroside may be needed to promote osmosis or diffusion into the food. Temperature and cooking time will also have an effect on uptake of mogroside: In general, more mogroside will be taken up by food when the cooking temperature is higher, and also when the cooking time is longer."}, "[17]": {"experiment": "tasting of Hominex amino acid beverage with mogroside", "assay_type": "in vivo", "settings": "9.3 g Hominex/100 ml water + 100 ppm mogroside (plain: bitter, chalky, floury)"}, "[18]": {"settings": "cocoa powder drink + 400 ppm mogroside vs control, number of tasters"}}, "note": "“Also recorded” adds a separate entry of the source."}
{"substance": "mogroside", "values": [{"measurement": "perceived taste", "setting": "[1]; 2% aqueous potassium chloride with 250 ppm mogroside, tasted by volunteers, without mogroside bitter, undrinkable", "result": "slightly salty, otherwise bland, and far more drinkable"}, {"measurement": "flavor", "setting": "[1]; KCl 2% + 250 ppm mogroside (2% alone: bitter)", "result": "salty"}, {"measurement": "flavor", "setting": "[1]; KCl 2.5% + 250 ppm mogroside", "result": "salty"}, {"measurement": "flavor", "setting": "[1]; KCl 3.0% + 250 ppm mogroside", "result": "slight bitterness"}, {"measurement": "flavor", "setting": "[2]; Acai puree 12% Brix, plain + 500 ppm mogroside (plain: tannic)", "result": "berry-semi-sweet/fruity"}, {"measurement": "flavor", "setting": "[2]; Acai, 100 ppm mogroside (control: bitter, tannic)", "result": "bland, slight tannic"}, {"measurement": "flavor", "setting": "[2]; Acai, 200 ppm mogroside", "result": "fruity, berry semi-sweet"}, {"measurement": "flavor", "setting": "[2]; Acai, 300 ppm mogroside", "result": "tannic, little flavor at all"}, {"measurement": "flavor", "setting": "[2]; Acai, 400 ppm mogroside", "result": "jammy, slight tannic"}, {"measurement": "flavor", "setting": "[2]; Acai, 500 ppm mogroside", "result": "jammy, no tannin"}, {"measurement": "flavor", "setting": "[2]; Acai, 600 ppm mogroside", "result": "jammy, sweet after taste;; also recorded: high intensity flavor"}, {"measurement": "flavor", "setting": "[2]; Acai, 700 ppm mogroside", "result": "sweet"}, {"measurement": "flavor", "setting": "[2]; Acai, 800 ppm mogroside", "result": "too sweet"}, {"measurement": "flavor", "setting": "[2]; acai products, 800 ppm mogroside", "result": "strong, high-intensity sweet flavor"}, {"measurement": "effect on bitterness and off-flavor of acai", "setting": "[2]; mogroside added to acai berry puree", "result": "masked the bitterness and off-flavor notes"}, {"measurement": "observed flavor change", "setting": "[3]; artichoke hearts", "result": "reduction in bitterness and grassy flavor"}, {"measurement": "observed flavor change", "setting": "[3]; broccoli", "result": "reduction in sulfur and bitter notes"}, {"measurement": "observed flavor change", "setting": "[3]; carrots", "result": "more intense sweetness"}, {"measurement": "observed flavor change", "setting": "[3]; corn", "result": "sweeter corn flavor"}, {"measurement": "observed flavor change", "setting": "[3]; green beans", "result": "sweeter flavor and fewer beany notes"}, {"measurement": "observed flavor change", "setting": "[3]; lima beans", "result": "reduction in bitterness"}, {"measurement": "observed flavor change", "setting": "[3]; peas", "result": "shorter flavor profile"}, {"measurement": "flavor", "setting": "[4]; 9.3 g Hominex/100 ml water + 200 ppm mogroside", "result": "much less so, but still; also recorded: bitter & slightly floury"}, {"measurement": "flavor", "setting": "[4]; 9.3 g Hominex/100 ml water + 300 ppm mogroside", "result": "drinkable"}, {"measurement": "flavor", "setting": "[4]; 9.3 g Hominex/100 ml water + 400 ppm mogroside", "result": "tasteless"}, {"measurement": "flavor", "setting": "[4]; 9.3 g Hominex/100 ml water + 500 ppm mogroside", "result": "tasteless"}, {"measurement": "flavor", "setting": "[4]; 9.3 g Hominex/100 ml water + 600 ppm mogroside", "result": "slight strange taste"}, {"measurement": "flavor", "setting": "[4]; 9.3 g Hominex/100 ml water + 700 ppm mogroside", "result": "hint of off-note"}, {"measurement": "flavor", "setting": "[4]; 9.3 g Hominex/100 ml water + 800 ppm mogroside", "result": "off-flavored"}, {"measurement": "flavor", "setting": "[4]; 10 g Hominex/230 g water + 200 ppm mogroside (without: bad aftertaste)", "result": "drinkable"}, {"measurement": "off-flavors, chalkiness, pastiness and bitterness compared to the unmodified beverage", "setting": "[4]; 200 ppm mogroside", "result": "reduced"}, {"measurement": "off-flavors, chalkiness, pastiness and bitterness compared to the unmodified beverage", "setting": "[4]; 300 ppm mogroside", "result": "essentially eliminated"}, {"measurement": "mogroside-associated off flavor", "setting": "[4]; 800 ppm mogroside", "result": "pronounced"}, {"measurement": "mogroside-associated off flavor", "setting": "[4]; around 600 ppm mogroside", "result": "began to develop"}, {"measurement": "flavor", "setting": "[5]", "result": "sweet"}, {"measurement": "flavor", "setting": "[6]", "result": "chocolate"}, {"measurement": "flavor", "setting": "[7]", "result": "sweet"}, {"measurement": "flavor", "setting": "[8]", "result": "semi-sweet; no; also recorded: beaniness"}, {"measurement": "flavor", "setting": "[9]", "result": "semi-sweet; no; also recorded: beaniness"}, {"measurement": "flavor", "setting": "[10]; plain + 2% KCl + mogroside (without mogroside: bitter)", "result": "salty"}, {"measurement": "flavor", "setting": "[10]; plain + 3% KCl + mogroside (without mogroside: bitter)", "result": "slightly bitter, salty"}, {"measurement": "flavor", "setting": "[11]", "result": "tasteless"}, {"measurement": "flavor", "setting": "[12]", "result": "sweet"}, {"measurement": "flavor", "setting": "[13]", "result": "sweet coffee flavor"}, {"measurement": "Difference testing: No", "setting": "[14]; [18]", "result": 0}, {"measurement": "Difference testing: Yes", "setting": "[14]; [18]", "result": 6}, {"measurement": "Preference testing: Control", "setting": "[14]; number preferring control without mogroside", "result": 1}, {"measurement": "Preference testing: Test", "setting": "[14]; number preferring test drink with 400 ppm mogroside", "result": 6}, {"measurement": "flavor", "setting": "[15]; plain + 100 ppm mogroside (plain: mild sour, mild sweet, very mild aftermath)", "result": "no difference from plain"}, {"measurement": "flavor", "setting": "[15]; plain + 200 ppm mogroside", "result": "mild sour, sweet, high"}, {"measurement": "flavor", "setting": "[15]; plain + 300 ppm mogroside", "result": "sweet, hint of sour,; also recorded: aftertaste of bitterness"}, {"measurement": "flavor", "setting": "[15]; plain + 400 ppm mogroside", "result": "very sweet, no sour,; also recorded: hint of bitterness"}, {"measurement": "flavor", "setting": "[15]; plain + 600 ppm mogroside", "result": "too sweet"}, {"measurement": "solubility in water compared with oil", "setting": "[16]", "result": "much higher than that in oil"}, {"measurement": "flavor", "setting": "[17]", "result": "less so, but still floury"}]}
